Assay results published in patent US8841233B2, “Herbicidal compositions comprising 4-amino-3-chloro-5-fluoro-6-(4-chloro-2-fluoro-3-methoxyphenyl) pyridine-2-carboxylic acid or a derivative thereof and 4-hydroxyphenyl-pyruvate dioxygenase (HPPD) inhibitors” (Dow Agrosciences LLC, priority 2012, dated 2014).

How the values were obtained:
SCPJU = experiment: Post-emergence foliar-applied weed control, greenhouse (Example I); format: in vivo, Schoenoplectus juncoides (Roxb.) Palla
Excerpt: Evaluation of Post-emergence Foliar-Applied Herbicidal Mixtures for Weed Control in Direct Seeded Rice
Seeds or nutlets of the desired test plant species were planted in a soil matrix prepared by mixing a loam or sandy loam soil (e.g., 28.6 percent silt, 18.8 percent clay, and 52.6 percent sand, with a pH of about 5.8 and an organic matter content of about 1.8 percent) and calcareous grit in an 80 to 20 ratio. The soil matrix was contained in plastic pots with a volume of 1 quart and a surface area of 83.6 square centimeters (cm^2). When required to ensure good germination and healthy plants, a fungicide treatment and/or other chemical or physical treatment was applied. The plants were grown for 8-22 days in a greenhouse with an approximate 14 h photoperiod which was maintained at about 29° C. during the day and 26° C. during the night. Nutrients (Peters Excel® 15-5-15 5-Ca 2-Mg and iron chelate) were applied in the irrigation solution as needed and water was added on a regular basis. Supplemental lighting was provided with overhead metal halide 1000-Watt lamps as necessary. The plants were employed for testing when they reached the first through fourth true leaf stage.
(§1) Treatments consisted of the acid or esters of 4-amino-3-chloro-5-fluoro-6-(4-chloro-2-fluoro-3-methoxy-phenyl)pyridine-2-carboxylic acid (Compound A), each formulated as an SC (suspension concentrate), and various herbicidal components alone and in combination. Forms of Compound A were applied on an acid equivalent basis.
(§2) Other herbicidal components were applied on an active ingredient basis and included 4-hydroxyphenyl pyruvate dioxygenase (HPPD)-inhibiting herbicides mesotrione formulated as Callisto®, sulcotrione formulated as Mikado®, pyrazolynate formulated as Sunbird® 10% GR, and benzobicyclon formulated as Benzobicyclon 3.5%.
Treatment requirements were calculated based upon the rates being tested, the concentration of active ingredient or acid equivalent in the formulation, and a 12 mL application volume at a rate of 187 L/ha.
For treatments comprised of formulated compounds, measured amounts of compounds were placed individually in 25 mL glass vials and diluted in a volume of 1.25% (v/v) Agri-Dex® crop oil concentrated to obtain 12× stock solutions. […] Application solutions were prepared by adding an appropriate amount of each stock solution (e.g., 1 mL) and diluted to the appropriate final concentrations with the addition of 10 mL of an aqueous mixture of 1.25% (v/v) crop oil concentrate so that the final spray solutions contained 1.25+/−0.05% (v/v) crop oil concentrate.
For treatments comprised of formulated and technical compounds, weighed amounts of the technical materials were placed individually in 25 mL glass vials and dissolved in a volume of 97:3 v/v acetone/DMSO to obtain 12× stock solutions, and measured amounts of the formulated compounds were placed individually in 25 mL glass vials and diluted in a volume of 1.5% (v/v) crop oil concentrate or water to obtain 12× stock solutions. […] Application solutions were prepared by adding an appropriate amount of each stock solution (e.g., 1 mL) and diluted to the appropriate final concentrations with the addition of an appropriate amount of an aqueous mixture of 1.5% (v/v) crop oil concentrate so that the final spray solutions contained 1.25% (v/v) crop oil concentrate. As required, additional water and/or 97:3 v/v acetone/DMSO was added to individual application solutions so that the final acetone and DMSO concentrations of the application solutions being compared were 8.1% and 0.25%, respectively.
All stock solutions and applications solutions were visually inspected for compound compatibility prior to application. Spray solutions were applied to the plant material with an overhead Mandel track sprayer equipped with a 8002E nozzles calibrated to deliver 187 L/ha over an application area of 0.503 m^2 at a spray height of 18 to 20 inches (46 to 50 cm) above average plant canopy height. […]

FIMMI = experiment: In-water applied weed control, transplanted paddy rice, greenhouse (Example II); format: in vivo, Fimbristylis miliacea (L.) Vahl
Description: Evaluation of in-Water Applied Herbicidal Mixtures for Weed Control in Transplanted Paddy Rice
Weed seeds or nutlets of the desired test plant species were planted in puddled soil (mud) prepared by mixing a shredded, non-sterilized mineral soil (50.5 percent silt, 25.5 percent clay, and 24 percent sand, with a pH of about 7.6 and an organic matter content of about 2.9 percent) and water at a 1:1 volumetric ratio. The prepared mud was dispensed in 365 mL aliquots into 16-ounce (oz.) non-perforated plastic pots with a surface area of 86.59 square centimeters (cm^2) leaving a headspace of 3 centimeters (cm) in each pot. Mud was allowed to dry overnight prior to planting or transplanting. Rice seeds were planted in Sun Gro MetroMix® 306 planting mixture, which typically has a pH of 6.0 to 6.8 and an organic matter content of about 30 percent, in plastic plug trays. Seedlings at the second or third leaf stage of growth were transplanted into 840 mL of mud contained in 32-oz. non-perforated plastic pots with a surface area of 86.59 cm^2 4 days prior to herbicide application. The paddy was created by filling the headspace of the pots with 2.5 to 3 cm of water. When required to ensure good germination and healthy plants, a fungicide treatment and/or other chemical or physical treatment was applied. The plants were grown for 4-22 days in a greenhouse with an approximate 14 h photoperiod which was maintained at about 29′C during the day and 26° C. during the night. Nutrients were added as Osmocote® (19:6:12, N:P:K+ minor nutrients) at 2 g per 16-oz. pot and 4 g per 32-oz. pot. Water was added on a regular basis to maintain the paddy flood, and supplemental lighting was provided with overhead metal halide 1000-Watt lamps as necessary. The plants were employed for testing when they reached the first through fourth true leaf stage.
as §1, with “(compound A)” for “(Compound A),”, “concentrate)” for “concentrate),”, “compound” for “Compound”
as §2, with “3.5% or technical material.” for “3.5%.”
Treatment requirements for each compound or herbicidal component were calculated based upon the rates being tested, the concentration of active ingredient or acid equivalent in the formulation, an application volume of 2 mL per component per pot, and an application area of 86.59 cm^2 per pot.
For formulated compounds, a measured amount was placed in an individual 100 or 200 mL glass vial and was dissolved in a volume of 1.25% (v/v) Agri-Dex® crop oil concentrate to obtain application solutions.
For technical grade compounds, a weighed amount was placed in an individual 100 to 200 mL glass vial and was dissolved in a volume of acetone to obtain concentrated stock solutions. […] The concentrated stock solutions obtained were diluted with an equivalent volume of an aqueous mixture containing 2.5% (v/v) crop oil concentrate so that the final application solutions contained 1.25% (v/v) crop oil concentrate.
Applications were made by injecting with a pipetter appropriate amounts of the application solutions, individually and sequentially, into the aqueous layer of the paddy. Control plants were treated in the same manner with the solvent blank. Applications were made so that all treated plant material received the same concentrations of acetone and crop oil concentrate.
The treated plants and control plants were placed in a greenhouse as described above and water was added as needed to maintain a paddy flood. […]

Row | SMILES | Visual Weed Control (%) - 20 DAA SCPJU Obs (SCPJU; 4.38 gae/ha) [%] | Visual Weed Control (%) - 20 DAA SCPJU Obs (SCPJU; 8.75 gae/ha) [%] | Visual Weed Control (%) - 21 DAA FIMMI Obs (FIMMI; 8 gae/ha) [%] | Visual Weed Control (%) - 21 DAA FIMMI Obs (FIMMI; 16 gae/ha) [%] | Visual Weed Control (%) - 22 DAA SCPJU Obs (SCPJU; 5.3 gae/ha) [%] | Visual Weed Control (%) - 22 DAA SCPJU Obs (SCPJU; 10.6 gae/ha) [%] | Visual Weed Control (%) - 21 DAA FIMMI Obs (FIMMI; 17.5 gae/ha) [%] | Visual Weed Control (%) - 21 DAA FIMMI Obs (FIMMI; 35 gae/ha) [%]
1 | COc1c(Cl)ccc(-c2nc(C(=O)OCc3ccccc3)c(Cl)c(N)c2F)c1F [Compound A Benzyl Ester, benzyl ester of 4-amino-3-chloro-5-fluoro-6-(4-chloro-2-fluoro-3-methoxy-phenyl)pyridine-2-carboxylic acid] | 30 | 60 | 15 | 65 | – | – | – | –
2 | COc1c(Cl)ccc(-c2nc(C(=O)O)c(Cl)c(N)c2F)c1F [Compound A Acid, 4-amino-3-chloro-6-(4-chloro-2-fluoro-3-methoxyphenyl)-5-fluoropyridine-2-carboxylic acid] | – | – | – | – | 60 | 75 | 85 | 85
